Assay results as given in US12319652B2, “Salts and solid forms of (R)-1-(5-methoxy-1H-indol-1-yl)-N,N-dimethylpropan-2-amine” (priority 2021, dated 2025).

Assay: Equilibrium humidity evaluation of crystalline compound 1 HCl Form A (95% RH/20° C.)
Format: physicochemical
Procedure: The stability of crystalline compound 1 HCl Form A was evaluated. Absorbent compound 1·Cl (Form A), (100 mg) was maintained, open-capped at 95% RH/20° C. and monitored at t=0, t=5 d and t=10 d, time points.
While absorbent Compound 1 HCl Form A), (100 mg) was placed open-capped inside double, cable-tied, electrostatic polythene bags (to mimic a typical packaging configuration) and placed inside the same humidity chamber at 95% RH at 20° C. and monitored at t=0, t=5 d and t=10 d time points. Stability of compound 1·HCl (Form A) at 40° C./75% RH was examined as part of the salt screen, and was stable over 10 d.

[1] = t = 10 d, open-capped vial inside double bags at 95% RH/20 (Table 111)
[2] = t = 10 d, open-capped vial inside double bags at 95% RH/20 (Table 112)

For `COc1ccc2c(ccn2C[C@@H](C)N(C)C)c1.Cl` [Compound 1 HCl], the “HPLC purity data, peak RT 11.41, RRT 0.94” value (from here on “HPLC purity data … RRT 0.94”) (t = 0, Table 111) was 0.07, the “HPLC purity data, peak RT 12.41, RRT 1.00 (main peak)” value (t = 0, Table 111) was 99.65 and the “HPLC purity data, peak RT 14.32, RRT 1.18” value (“HPLC purity data … RRT 1.18” for short) (t = 0, Table 111) was 0.03. For the same compound, the “HPLC purity data, peak RT 15.05, RRT 1.24” value (“HPLC purity data … RRT 1.24” for short) (t = 0, Table 111) was 0.05, the “HPLC purity data, peak RT 15.41, RRT 1.27” value (“HPLC purity data … RRT 1.27” for short) (t = 0, Table 111) was 0.07 and the “HPLC purity data, peak RT 15.78, RRT 1.30” value (“HPLC purity data … RRT 1.30” for short) (t = 0, Table 111) was 0.04. The “HPLC purity data, peak RT 16,50, RRT 1.36” value (t = 0, Table 111) was 0.08, the “HPLC purity data … RRT 0.94” value (t = 0, Table 112) was 0.07 and the “HPLC purity data, peak RT 12.01, RRT 0.99” value (t = 0, Table 112) was 0.02. The “HPLC purity data, peak RT 12.14, RRT 1.00 (main peak)” value (t = 0, Table 112) was 99.65, the “HPLC purity data … RRT 1.18” value (t = 0, Table 112) was 0.03 and the “HPLC purity data … RRT 1.24” value (t = 0, Table 112) was 0.05. The “HPLC purity data … RRT 1.27” value (t = 0, Table 112) was 0.07, the “HPLC purity data … RRT 1.30” value (t = 0, Table 112) was 0.04 and the “HPLC purity data, peak RT 16.50, RRT 1.36” value (t = 0, Table 112) was 0.08. The “HPLC purity data, peak RT 11.29, RRT 0.93” value [1] was 0.06, the “HPLC purity data … RRT 0.94” value [1] was 0.02 and the “HPLC purity data, peak RT 12.41, RRT 1.00 (main peak)” value [1] was 99.79. The “HPLC purity data … RRT 1.18” value [1] was 0.03, the “HPLC purity data … RRT 1.24” value [1] was 0.04 and the “HPLC purity data … RRT 1.27” value [1] was 0.02. The “HPLC purity data … RRT 0.94” value [2] was 0.06, the “HPLC purity data, peak RT 12.01, RRT 0.99” value [2] was 0.02 and the “HPLC purity data, peak RT 12.14, RRT 1.00 (main peak)” value [2] was 99.78. The “HPLC purity data … RRT 1.18” value [2] was 0.03, the “HPLC purity data, peak RT 14.68, RRT 1.21” value [2] was 0.03 and the “HPLC purity data … RRT 1.24” value [2] was 0.05. For the same compound, the “HPLC purity data … RRT 1.27” value [2] was 0.01 and the “HPLC purity data … RRT 1.30” value [2] was 0.02.
